Holding throughout (format): physicochemical
A short description of data set [1]: Gravimetric Vapour Sorption (GVS) moisture sorption isotherm. The settings on record: over 0-90% RH range, 25° C. The method, then: GVS data were collected using a SMS DVS Intrinsic moisture sorption analyser, controlled by DVS Intrinsic Control software v1.0.0.30. The sample temperature was maintained at 25° C. by the instrument controls. The humidity was controlled by mixing streams of dry and wet nitrogen, with a total flow rate of 200 ml/min The relative humidity was measured by a calibrated Rotronic probe (dynamic range of 1.0-100% RH), located near the sample. The weight change, (mass relaxation) of the sample as a function of % RH was constantly monitored by the microbalance (accuracy ±0.005 mg).
Typically 5-20 mg of sample was placed in a tared mesh stainless steel basket under ambient conditions. The sample was loaded and unloaded at 40% RH and 25° C. (typical room conditions). A moisture sorption isotherm was performed as outlined below (2 scans giving 1 complete cycle). The standard isotherm was performed at 25° C. at 10% RH intervals over a 0-90% RH range. Data analysis was undertaken in Microsoft Excel using DVS Analysis Suite v6.0.

Data set [2] in a line: XRPD analysis after heating at 150° C. The method, then: Polymorphic Form II of 1-(2-((((trans)-3-fluoro-1-(3-fluoropyridin-2-yl)cyclobutyl)methyl)amino)pyrimidin-5-yl)-1H-pyrrole-3-carboxamide was analyzed by XRPD, DSC, TGA, and GVS.
A short description of data set [3]: Competitive slurry experiments between Form I and Form V. The settings on record: XRPD. The method, then: For competitive slurry experiments, a mixture of Form I (˜10 mg) and Form V (˜10 mg) were suspended in 20 volumes of ethanol or methanol. Parallel maturation experiments were set up at a constant temperature, in the range of 4° C. to 60° C. for 9-12 days, the resulting solids (rapidly isolated by solvent decantation) were analyzed by XRPD. A mechanical mixture of Form I and Form V in equivalent weight was also analyzed by XRPD for reference. For the control experiments, slurries of Form I or Form V were subjected to the same conditions as in the competitive slurry experiments.
In an attempt to determine a transition temperature for the polymorph pair, a further four competitive slurry experiments were performed at a higher temperature range of 65-75° C. Using sealed vials, Form I (˜10 mg) and Form V (˜10 mg) were suspended in 20 volumes of ethanol or methanol and maturation continued for 2 days.

With `NC(=O)c1ccn(-c2cnc(NC[C@]3(c4ncccc4F)C[C@H](F)C3)nc2)c1` [Form II, 1-(2-((((trans)-3-fluoro-1-(3-fluoropyridin-2-yl)cyclobutyl)methyl)amino)pyrimidin-5-yl)-1H-pyrrole-3-carboxamide], the “moisture uptake as determined by GVS” value in data set [1] is reported as “about 1.65%”. In addition, in data set [2], the “solid form by XRPD after heating” value is recorded as “converted to Form I”.

As for `NC(=O)c1ccn(-c2cnc(NC[C@]3(c4ncccc4F)C[C@H](F)C3)nc2)c1` [Form V, 1-(2-((((trans)-3-fluoro-1-(3-fluoropyridin-2-yl)cyclobutyl)methyl)amino)pyrimidin-5-yl)-1H-pyrrole-3-carboxamide], the “moisture uptake as determined by GVS” value in data set [1] is reported as “less than 0.05%”. The “relative stability versus Form I (competitive slurry)” value was “more stable” in data set [3] (ethanol, 4° C. to 60° C., 9-12 days); “more stable form” in data set [3] (ethanol, 65-75° C., 2 days, sealed vials); “more stable” in data set [3] (methanol, 4° C. to 60° C., 9-12 days). The “solid form obtained from Form I/Form V competitive slurry” value in data set [3] (methanol, 65° C., 2 days, sealed vials) was “mixture of both forms”.
